Experimental data reported in PubChem BioAssay AID256 (DTP/NCI, 2004).
Several values for one entry are separate records, joined by “and”; a condition that tells them apart may be missing. Equal values may be shown once. Toxic doses and inconclusive results are not listed. The calls were made as follows: active = survival T/C of 150% or more; inactive = T/C below 125% in these data.

System: CD2F1 mice, L1210 leukemia ip, survival T/C
Experiment: NCI In Vivo Anticancer Drug Screen. Data for tumor model L1210 Leukemia (intraperitoneal) in CD2F1 (CDF1) mice
Conditions: higher = longer survival
How it was run: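 Implant tumor; dose compound or vehicle; measure endpoint in both groups; report treated divided by control.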

[1] = endpoint: mean survival time, dose: 100.0 mg/kg/injection, schedule: Q01DX001 (ip), vehicle: saline
[2] = endpoint: mean survival time, dose: 200.0 mg/kg/injection, schedule: Q01DX001 (ip), vehicle: saline
[3] = endpoint: mean survival time, dose: 400.0 mg/kg/injection, schedule: Q01DX001 (ip), vehicle: saline
[4] = endpoint: mean survival time, dose: 100.0 mg/kg/injection, schedule: Q01DX001 (ip), vehicle: saline with Tween-80
[5] = endpoint: mean survival time, dose: 200.0 mg/kg/injection, schedule: Q01DX001 (ip), vehicle: saline with Tween-80
[6] = endpoint: mean survival time, dose: 400.0 mg/kg/injection, schedule: Q01DX001 (ip), vehicle: saline with Tween-80
[7] = endpoint: mean survival time, dose: 100.0 mg/kg/injection, schedule: Q01DX009 (ip), vehicle: saline
[8] = endpoint: mean survival time, dose: 200.0 mg/kg/injection, schedule: Q01DX009 (ip), vehicle: saline
[9] = endpoint: mean survival time, dose: 50.0 mg/kg/injection, schedule: Q01DX009 (ip), vehicle: saline with Tween-80
[10] = endpoint: mean survival time, dose: 100.0 mg/kg/injection, schedule: Q01DX009 (ip), vehicle: saline with Tween-80
[11] = endpoint: mean survival time, dose: 200.0 mg/kg/injection, schedule: Q01DX009 (ip), vehicle: saline with Tween-80
[12] = endpoint: mean survival time, dose: 100.0 mg/kg/injection, schedule: Q04DX003 (ip), vehicle: saline with Tween-80
[13] = endpoint: mean survival time, dose: 200.0 mg/kg/injection, schedule: Q04DX003 (ip), vehicle: saline with Tween-80
[14] = endpoint: mean survival time, dose: 400.0 mg/kg/injection, schedule: Q04DX003 (ip), vehicle: saline with Tween-80
[15] = endpoint: mean survival time, dose: 100.0 mg/kg/injection, schedule: Q04DX002 (ip), vehicle: saline with Tween-80
[16] = endpoint: mean survival time, dose: 200.0 mg/kg/injection, schedule: Q04DX002 (ip), vehicle: saline with Tween-80
[17] = endpoint: median survival time, dose: 12.5 mg/kg/injection, schedule: Q01DX009 (ip), vehicle: saline with Tween-80
[18] = endpoint: median survival time, dose: 25.0 mg/kg/injection, schedule: Q01DX009 (ip), vehicle: saline with Tween-80
[19] = endpoint: median survival time, dose: 50.0 mg/kg/injection, schedule: Q01DX009 (ip), vehicle: saline with Tween-80
[20] = endpoint: mean survival time, dose: 400.0 mg/kg/injection, schedule: Q04DX002 (ip), vehicle: saline with Tween-80

Measured: T/C

C[CH2][Pb]([CH2]C)([CH2]C)[O]C(=O)C=C1CCCC1
inactive: endpoint: mean survival time, dose: 0.63 mg/kg/injection, schedule: Q01DX009 (ip), vehicle: saline 96 % of control | endpoint: mean survival time, dose: 1.25 mg/kg/injection, schedule: Q01DX009 (ip), vehicle: saline 102 % of control | endpoint: mean survival time, dose: 2.5 mg/kg/injection, schedule: Q01DX009 (ip), vehicle: saline 95 % of control | endpoint: mean survival time, dose: 5.0 mg/kg/injection, schedule: Q04DX003 (ip), vehicle: saline with Tween-80 92 % of control | endpoint: mean survival time, dose: 10.0 mg/kg/injection, schedule: Q04DX003 (ip), vehicle: saline with Tween-80 92 % of control

O=S(=O)(O)N=Nc1ccc(OCc2ccccc2)cc1
inactive: [1] 100 % of control | [2] 100 % of control | [3] 97 % of control

COc1ccc(-c2c(C(=O)O)cc(O)c3cc(OC)c(OC)cc23)cc1OC
inactive: [1] 97 % of control | [2] 97 % of control | [3] 92 % of control

Cc1ccc(S(=O)(=O)OC2COC3C(OS(=O)(=O)c4ccc(C)cc4)COC23)cc1 (stereo unspecified)
inactive: [4] 93 % of control | [5] 89 % of control | [6] 88 % of control

O=C(Nc1ccc(Cl)c(Cl)c1)Nc1ccc(Oc2ccc(Cl)cc2Cl)cc1S(=O)(=O)O
inactive: endpoint: mean survival time, dose: 100.0 mg/kg/injection, schedule: Q01DX001 (ip), vehicle: acetone 102 % of control | endpoint: mean survival time, dose: 200.0 mg/kg/injection, schedule: Q01DX001 (ip), vehicle: acetone 91 % of control | endpoint: mean survival time, dose: 400.0 mg/kg/injection, schedule: Q01DX001 (ip), vehicle: acetone 94 % of control

c1ccc(CN2CCOC2)cc1
inactive: endpoint: mean survival time, dose: 12.5 mg/kg/injection, schedule: Q01DX009 (ip), vehicle: saline 95 % of control and 101 % of control | endpoint: mean survival time, dose: 25.0 mg/kg/injection, schedule: Q01DX009 (ip), vehicle: saline 97 % of control and 101 % of control | endpoint: mean survival time, dose: 50.0 mg/kg/injection, schedule: Q01DX009 (ip), vehicle: saline 100 % of control and 106 % of control | [7] 104 % of control and 106 % of control | [8] 95 % of control and 106 % of control

CN(C)c1ccc(/C=N\NC(=O)CNC(=O)Nc2ccc(F)cc2)c(Cl)c1
inactive: [9] 100 % of control | [10] 88 % of control | [11] 92 % of control

NC(=O)N/N=C/c1ccc([N+](=O)[O-])s1
inactive: [12] 97 % of control | [13] 99 % of control | [14] 106 % of control

CC1(O)CC2CCCC1C2 (stereo unspecified)
inactive: [12] 93 % of control | [13] 90 % of control | [14] 93 % of control

O=C(NC1CCC(CC2CCCCC2)CC1)c1ccccc1 (stereo unspecified)
inactive: [10] 100 % of control | [11] 93 % of control | endpoint: mean survival time, dose: 400.0 mg/kg/injection, schedule: Q01DX009 (ip), vehicle: saline with Tween-80 114 % of control

O=C(O)Cc1cc2c(cc1I)OCO2
inactive: [12] 100 % of control | [13] 95 % of control | [14] 101 % of control

O=C(COc1ccccc1)NCc1ccc([N+](=O)[O-])cc1
inactive: endpoint: mean survival time, dose: 50.0 mg/kg/injection, schedule: Q01DX001 (ip), vehicle: saline with Tween-80 96 % of control | [4] 96 % of control | [5] 91 % of control

O=C(O)C1(c2ccccc2)CC1
inactive: endpoint: mean survival time, dose: 100.0 mg/kg/injection, schedule: Q01DX009 (ip), vehicle: saline sonified 88 % of control | [12] 97 % of control | endpoint: mean survival time, dose: 200.0 mg/kg/injection, schedule: Q01DX009 (ip), vehicle: saline sonified 92 % of control | [13] 97 % of control | endpoint: mean survival time, dose: 400.0 mg/kg/injection, schedule: Q01DX009 (ip), vehicle: saline sonified 94 % of control | [14] 110 % of control

COC(=O)C1CCCCCC1=O (stereo unspecified)
inactive: [12] 96 % of control | [13] 94 % of control | [14] 88 % of control

NC(=O)CCc1ccnc2ccccc12
inactive: [15] 96 % of control | [16] 92 % of control

CCCC(C)(C)c1ccccc1
inactive: [9] 104 % of control | [10] 96 % of control | [11] 89 % of control

c1ccc2c3c(ccc2c1)-c1oncc1CC3
inactive: endpoint: mean survival time, dose: 100.0 mg/kg/injection, schedule: Q04DX003 (ip), vehicle: saline 98 % of control | endpoint: mean survival time, dose: 200.0 mg/kg/injection, schedule: Q04DX003 (ip), vehicle: saline 91 % of control | endpoint: mean survival time, dose: 400.0 mg/kg/injection, schedule: Q04DX003 (ip), vehicle: saline 102 % of control

COc1ccc(/C=N/NC(=O)CNC(=O)Nc2cccc(C(F)(F)F)c2)cc1
inactive: [9] 92 % of control | [10] 88 % of control | [11] 92 % of control

COc1cc2ccnc(Cc3ccc4c(c3)OCO4)c2cc1OC
inactive: [7] 94 % of control | endpoint: mean survival time, dose: 100.0 mg/kg/injection, schedule: Q04DX003 (ip), vehicle: saline sonified 95 % of control | [8] 95 % of control | endpoint: mean survival time, dose: 200.0 mg/kg/injection, schedule: Q04DX003 (ip), vehicle: saline sonified 105 % of control | endpoint: mean survival time, dose: 400.0 mg/kg/injection, schedule: Q01DX009 (ip), vehicle: saline 95 % of control | endpoint: mean survival time, dose: 400.0 mg/kg/injection, schedule: Q04DX003 (ip), vehicle: saline sonified 93 % of control

CC1C(OC(=O)CCl)CCC2C1(C)CCC1C2(C)CCC2(C)C3CC(C)(C)CCC3(C)CCC12C (stereo unspecified)
inactive: [1] 97 % of control | [2] 97 % of control | [3] 97 % of control

CC(/C=C/c1ccccc1)=Nc1ccccc1
inactive: [12] 106 % of control | [13] 103 % of control | [14] 106 % of control | [17] 108 % of control | [18] 98 % of control | [19] 111 % of control | endpoint: median survival time, dose: 100.0 mg/kg/injection, schedule: Q01DX009 (ip), vehicle: saline with Tween-80 107 % of control | endpoint: median survival time, dose: 200.0 mg/kg/injection, schedule: Q01DX009 (ip), vehicle: saline with Tween-80 104 % of control

c1ccc2c(CC3=NCCN3)cccc2c1
inactive: endpoint: mean survival time, dose: 12.5 mg/kg/injection, schedule: Q04DX003 (ip), vehicle: saline with Tween-80 98 % of control | endpoint: mean survival time, dose: 50.0 mg/kg/injection, schedule: Q04DX003 (ip), vehicle: saline with Tween-80 88 % of control | endpoint: mean survival time, dose: 50.0 mg/kg/injection, schedule: Q04DX003 (ip), vehicle: saline 102 % of control

CCC(NC(N)=O)C(CC)NC(N)=O (stereo unspecified)
inactive: [17] 97 % of control | [18] 96 % of control | [19] 90 % of control

COc1ccc(N=Nc2sc(N)nc2-c2cccc([N+](=O)[O-])c2)cc1
inactive: [4] 93 % of control | [5] 90 % of control | [6] 97 % of control

CC(C)C1CCC(C)C(C(CC(=O)c2ccccc2)c2ccccc2)C1=O (stereo unspecified)
inactive: [15] 97 % of control | [16] 90 % of control | [20] 101 % of control

O=C(N/N=C/c1ccc(O)cc1)c1ccncc1
inactive: endpoint: mean survival time, dose: 50.0 mg/kg/injection, schedule: Q04DX002 (ip), vehicle: saline with Tween-80 95 % of control | [15] 91 % of control | [16] 100 % of control | [20] 88 % of control

C(=N\Nc1nc2ccccc2o1)/c1ccncc1
inactive: endpoint: mean survival time, dose: 100.0 mg/kg/injection, schedule: Q04DX003 (ip), vehicle: Klucel (hydroxypropylcellulose) (HPC) 103 % of control | endpoint: mean survival time, dose: 200.0 mg/kg/injection, schedule: Q04DX003 (ip), vehicle: Klucel (hydroxypropylcellulose) (HPC) 95 % of control | endpoint: mean survival time, dose: 400.0 mg/kg/injection, schedule: Q04DX003 (ip), vehicle: Klucel (hydroxypropylcellulose) (HPC) 101 % of control
